# Where “and” joins values, the source holds several entries; their conditions need not be identical. Equal values may be shown once.
# Columns and labels:
# Long-Evans rats [1] = test: Locomotor activity, activity monitoring chambers; type: in vivo, rat; details: higher doses (0.5, 2.5, 5.0 mg/kg ip) (FIG. 24)
# Procedure: Activity monitoring was conducted in a Plexiglas open-field box measuring 30 by 30 cm. […] The location of the animal within the cage was detected by breaks in the infrared light beams. Light beams status information was collected and rapidly analyzed by a computerized activity monitoring system (VersaMax System, Accuscan Instruments.)
# In order to determine whether SN522 had any adverse effects on locomotor or exploratory activity, rats were injected with saline or 0.25, 0.5, 2.5 and 5.0 mg/kg of SN522 and immediately afterwards placed into the activity monitoring chambers for a period of three hours.
# rats [2] = test: Inhibitory Avoidance task, normal rats
# Procedure: The paradigms consists of one training trial and one retention trial. Test substances may be administered to the rats either before or after training. Improved memory, as a result of test substance administration, is evident on the retention trial.
# (§1) Two seconds after entering the dark chamber, a continuous 0.46 mA foot-shock was delivered through the floor grid for two seconds. The animal was then removed from the apparatus and returned to the home cage. The animals received a retention test 24 hours following training. The retention test was identical to training except that no foot-shock was delivered. […] Data was collected by the Graphic State™ Notation software, and was recorded onto an appropriate data sheet.
# [3] = tested on: rats with bilateral lesions of the fornix; test: Inhibitory Avoidance task, fornix lesion rats; details: for latency to enter the dark side of the apparatus: Fornix lesion rats, each animal
# Procedure: as §1
# rats [4] = test: Activity monitoring, open-field box, 10 minutes; details: 2 mg/kg; entire 10 minute session (FIG. 7)
# Procedure: Activity monitoring was conducted in a Plexiblas open-field box. Activity levels were measured by a grid of infrared light beams that traversed the cage from left to right and back to front. The location of the animal was detected by breaks in the infrared light beams. General behavior and activity levels were recorded by a computerized monitoring system for a period of ten minutes. The analyzed behaviors included but were not limited to; horizontal activity, total distance moved, movement time, number of movements, number of rears, number of stereotyped movements, and time spent resting. Data was collected on-line using Versa Max (Version 1.83) computer software and a Hewlett Packard Pavilion computer.
# Long-Evans rats [5] = test: Passive Avoidance test, injection immediately after training; details: i.p. immediately after training; p values=0.007 (C105), 0.0004 (d-amphetamine), 0.03 (SN522)
# rats [6] = test: Tail-Flick Analgesia Testing (C105); type: in vivo, rat; set-up: Tail-Flick Analgesia (latency to flick tail): unit not given here; details: for Tail-Flick Analgesia (latency to flick tail): each animal
# Procedure: For Tail-Flick Analgesia Testing, the animal was placed on top of the Tail-Flick monitor and gently held in place with a cotton towel. The tail of the animal was placed in a shallow groove lying between two sensors and over the top of a radiant heat wire. The Tail Flick monitor was activated, and the latency for the animal to flick its tail out of the groove and away from the heat source was recorded. The animal was returned to its home cage immediately following testing.
# scopolamine treated rats = test: Passive Avoidance in scopolamine treated rats (memory impairment); type: in vivo, rat
# [7] = tested on: healthy adult male and female subjects; test: Phase 1 studies of C105: safety and tolerability; type: in vivo, human
# Text: Safety and tolerability assessments were changes in vital signs, ECGs, Holter monitoring, laboratory tests, physical examination and adverse events.
# rats [8] = test: Spontaneous Object Recognition task, normal rats; details: 0.5 mg/kg immediately following training
# Text: Apparatus for Object Recognition testing consisted of a plexiglass open field activity chamber, measuring 30 by 30 cm. A video camera was mounted on the wall above the chamber. Three plastic objects served as stimuli for the experiment. Two of the objects were identical to one another, and the third was different. Rats were individually habituated to the open-field box for three consecutive days. Habituation sessions were six minutes in duration. Twenty-four hours after the last day of habituation, a training session was conducted, in which two identical objects were placed in the open-field box, 10 cm from the back wall. The animal was placed into the box and was allowed to explore freely for a period of four minutes. Twenty-four hours after the training session, retention testing was conducted. During retention testing, the rat was placed back into the same activity box with one of the familiar objects used during the training session and a novel object that the rat had not seen before. The rat was allowed to explore the box and objects for a period of four minutes. Testing was conducted at the same time each day, and was videotaped for off-line analysis. Two discrimination indices, D1 and D2 were calculated in order to measure the strength of recognition memory. […]
compound,measurement,setting,value
"C[C@H](N)Cc1ccccc1 [(S)-(+)-amphetamine, reference compound]",effects on activity,Long-Evans rats [1],profound increases in activity
same,latency to enter the dark side of the apparatus,"rats [2]; 0.5 mg/kg, each animal, rank-ordered, 24 h retention",65.0 seconds and 110.0 seconds and 153.0 seconds and 207.0 seconds (2×) and 2.0 seconds and 26.0 seconds and 38.0 seconds and 39.0 seconds and 63.0 seconds
same,latency to enter the dark side of the apparatus,"rats [2]; 1.0 mg/kg, each animal, rank-ordered, 24 h retention",34.0 s and 35.0 s and 47.0 s and 157.0 s and 263.0 s and 7.0 s and 17.0 s and 19.0 s and 25.0 s and 31.0 s
same,"Inhibitory Avoidance performance, dose experiment",rats [2]; 2.0 mg/kg one hour before training (Tables 1 and 2),appeared to enhance performance
same,IA performance of normal rats,"rats [2]; 2.0 mg/kg, one hour before (FIG. 5), p<0.05 vs all other groups",dramatically enhanced the performance of normal rats
same,memory for the Inhibitory Avoidance task,"rats [2]; 2.0 mg/kg, replicated experiments (FIG. 6), t(76)=3.416, p<0.001",significantly enhanced memory for the Inhibitory Avoidance task
same,latency to enter the dark side of the apparatus,"rats [2]; 2.0 mg/kg, each animal, rank-ordered, 24 h retention",190.0 s and 230.0 s and 245.0 s and 457.0 s and 517.0 s and 33.0 s and 63.0 s and 82.0 s and 84.0 s and 101.0 s
same,second retention test one week after the first retention test,"rats [2]; no additional training or drug (FIG. 4), p<0.01",performed significantly better than rats that had received control injections of vehicle solution
same,"IA performance of fornix animals compared with normal, saline injected animals",[3]; 2.0 mg/kg (FIG. 5),"not significantly different from normal, saline injected animals"
same,IA performance of fornix lesion rats,"[3]; 2.0 mg/kg, one hour before (FIG. 5)",appeared to improve the performance of the fornix lesion rats
same,locomotor activity,rats [4],clear and significant enhancement in locomotor activity
same,dose that significantly improved performance on the passive avoidance task,Long-Evans rats [5],2.0 mg/kg
(−)-1-methyl-2-phenylethylamine sulfate (2:1) [C105],Tail-Flick Analgesia (latency to flick tail),rats [6]; 1.0 mg/kg one hour prior to testing,4.60 and 5.09 and 6.01 and 1.13 and 2.28 and 3.26 and 3.30 and 4.59
same,Tail-Flick Analgesia (latency to flick tail),rats [6]; 2.0 mg/kg one hour prior to testing,3.89 and 3.96 and 4.45 and 2.46 and 2.68 and 2.79 and 3.05 and 3.56
same,Tail-Flick Analgesia (latency to flick tail),rats [6]; 4.0 mg/kg one hour prior to testing,6.66 and 16.44 and 20.00 and 2.22 and 3.13 and 5.43 and 6.26 and 6.42
same,Tail-Flick Analgesia (latency to flick tail),rats [6]; 8.0 mg/kg one hour prior to testing,6.54 and 7.39 and 14.43 and 3.13 and 4.67 and 4.72 and 5.22
same,analgesic properties,rats [6]; 1.0 and 2.0 mg/kg one hour prior to testing,had no analgesic properties
same,analgesic properties,"rats [6]; 4.0 and 8.0 mg/kg one hour prior to testing, statistical significance at 4.0 mg/kg (p<0.0117)",did
same,performance vs animals treated with scopolamine and saline,"scopolamine treated rats; 1.0 mg/kg of C105, printed p>0.05",performed significantly better than animals treated with scopolamine and saline
same,alleviation of scopolamine impairment (step-through latency),"scopolamine treated rats; C105 i.p. immediately after training, log rank p=0.02 (FIG. 33)",effective at alleviating the impairment in the scopolamine-injected animals
same,serious adverse events,[7]; single oral doses 5 to 45 mg,no reported serious adverse events
same,most frequently reported adverse events,"[7]; single oral doses 5 to 45 mg, generally mild","dizziness, headache, insomnia, sinus tachycardia, supraventricular tachycardia and aptyalism"
same,tolerability,[7]; single oral doses ranging from 5 to 45 mg,well tolerated
same,latency to enter the dark side of the apparatus,"rats [2]; 0.4 mg/kg one hour prior to training, each animal, rank-ordered",231.0 s and 236.0 s and 250.0 s and 265.0 s and 629.0 s and 45.0 s and 62.0 s and 80.0 s and 87.0 s and 170.0 s
same,"Inhibitory Avoidance performance, post training administration","rats [2]; 0.5 mg/kg immediately after training (FIG. 11), p<0.0402",significantly enhanced performance on the Inhibitory Avoidance task
same,latency to enter the dark side of the apparatus,"rats [2]; 1.0 mg/kg one hour prior to training, each animal, rank-ordered",343.0 s and 729.0 s and 813.0 s and 824.0 s and 900.0 s and 101.0 s and 115.0 s and 121.0 s and 202.0 s and 265.0 s
same,Inhibitory Avoidance performance vs saline controls,"rats [2]; 1.0 mg/kg one hour prior to training, post hoc p<0.05",performed significantly better than saline injected controls
same,latency to enter the dark side of the apparatus,"rats [2]; 2.0 mg/kg one hour prior to training, each animal, rank-ordered",230.0 seconds and 231.0 seconds and 253.0 seconds and 366.0 seconds and 384.0 seconds and 30.0 seconds and 59.0 seconds (2×) and 127.0 seconds and 137.0 seconds
same,latency to enter the dark side of the apparatus,"rats [2]; Control rats, 0.5 mg/kg, each animal (Table 7)",214.0 s and 240.0 s and 252.0 s and 271.0 s and 284.0 s
same,latency to enter the dark side of the apparatus,"rats [2]; Control rats, 1.0 mg/kg, each animal (Table 7)",106.0 s and 195.0 s and 197.0 s and 213.0 s and 238.0 s
same,latency to enter the dark side of the apparatus,"rats [2]; Control rats, 2.0 mg/kg, each animal (Table 7)",86.0 s and 92.0 s and 106.0 s and 160.0 s and 192.0 s
same,latency to enter the dark side of the apparatus,"rats [2]; Control rats, 4.0 mg/kg, each animal (Table 7)",83.0 seconds (2×) and 86.0 seconds and 98.0 seconds and 193.0 seconds
same,"mnemonic performance, Inhibitory Avoidance","rats [2]; doses lower than 0.5 mg/kg (0.1, […]) one hour prior to training",not effective in improving the mnemonic performance
same,latency to enter the dark side of the apparatus,"rats [2]; low doses: 0.1 mg/kg one hour prior to training, each animal, 0.1 mg/kg",55.0 seconds (2×) and 110.0 seconds and 113.0 seconds and 124.0 seconds and 366.0 seconds and 37.0 seconds (2×) and 39.0 seconds (2×)
same,dose most effective in improving the performance of the fornix lesion animals,"[3]; 0.5, 1.0, 2.0 and 4.0 mg/kg tested, one hour prior to testing (FIG. 12)",1.0 mg/kg
same,latency to enter the dark side of the apparatus,[3]; 0.5 mg/kg,21.0 seconds (2×) and 32.0 seconds and 55.0 seconds and 65.0 seconds and 72.0 seconds and 209.0 seconds and 4.0 seconds and 7.0 seconds and 13.0 seconds
same,latency to enter the dark side of the apparatus,[3]; 1.0 mg/kg,19.0 seconds (2×) and 166.0 seconds and 221.0 seconds and 246.0 seconds and 274.0 seconds and 314.0 seconds and 4.0 seconds and 7.0 seconds
same,latency to enter the dark side of the apparatus,[3]; 2.0 mg/kg,28.0 s and 30.0 s and 40.0 s and 70.0 s and 84.0 s and 153.0 s and 4.0 s and 17.0 s and 18.0 s and 26.0 s
same,latency to enter the dark side of the apparatus,[3]; 4.0 mg/kg,25.0 s and 28.0 s and 42.0 s and 96.0 s and 140.0 s and 159.0 s and 2.0 s and 8.0 s and 13.0 s and 21.0 s
same,discrimination indices D1 and D2 vs saline,rats [8]; p<0.0147 and p<0.0024,significantly higher
same,recognition memory,rats [8]; retention 24 h,significantly improved recognition memory
same,dose that significantly improved performance on the passive avoidance task,Long-Evans rats [5],0.5 mg/kg

# Reference: US7619005B2, “Methods for treating cognitive impairment in humans with Multiple Sclerosis” (Cognition Pharmaceuticals LLC, priority 2000, dated 2009)
